The target in data set [1] is T1, hAQP1 (Homo sapiens, UniProt P29972).
T1 construct: made in house; host or cells: Spodoptera frugiperda (Sf9) insect cells, baculovirus vector pFB-LIC-Bse
T1 sequence (P29972 1-269): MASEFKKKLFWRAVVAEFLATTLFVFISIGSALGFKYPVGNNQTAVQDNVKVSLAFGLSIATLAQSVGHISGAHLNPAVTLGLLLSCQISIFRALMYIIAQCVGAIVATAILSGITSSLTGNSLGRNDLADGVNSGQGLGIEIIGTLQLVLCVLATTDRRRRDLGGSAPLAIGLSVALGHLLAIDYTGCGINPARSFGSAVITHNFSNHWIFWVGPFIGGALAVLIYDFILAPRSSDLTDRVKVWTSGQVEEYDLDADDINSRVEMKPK
The experiment in a line: Surface plasmon resonance (SPR) fragment binding to immobilized hAQP1. The conditions noted are these: for SPR binding behaviour: sensorgrams 6.25 to 800 µM. How it is done:
Surface Plasmon Resonance measurements were performed using Biacore T-200 (GE Healthcare, Uppsala, Sweden) using the running buffer PBS pH 7.4 supplemented with 1% OG and 5% dimethylsulfoxide (DMSO) at 25 °C. Purified recombinant hAQP1 was directly immobilized onto Biacore Sensor Chip CM5 Research Grade (GE Healthcare, Little Chalfont, UK) using standard amine-coupling chemistry at a flow rate of 5 µL/min. Carboxyl derivatives on CM5 dextran surface were activated with a 10-min 1:1 mixture of 0.2 M N-ethyl-N′-(3-([…])propyl)carbodiimide (EDC) and 50 mM N-hydroxysuccinimide (NHS). The aquaporins were diluted in 10 mM sodium acetate, pH 5.0 and injected across the surface separately. Addition of 0.5 M ethanolamine–HCl at pH 8.5 for 10 min was used to block unreacted activated carboxyl derivates.
The Maybridge Ro3 Diversity Fragment Library (Thermo Fisher Scientific, Waltham, MA, USA) consisting of 1500 fragments was used for screening. These fragments have molecular weight ranging from 82.1 to 295.3 Da, with an experimental guarantee of solubility of ≥1 mM in aqueous phosphate buffer and ≥200 mM in DMSO. They satisfy the “rule of three” criteria, i.e., a molecular weight of ≤300 Da, a cLogP of ≤3.0, ≤3 H-bond acceptors or H-bond donors, ≤3 rotatable bonds, and a polar surface area of ≤60 Å^2. Lyophilized powder of each fragments were pre-dissolved in 100% DMSO prior to the screening campaign. A volume of 10 µL of a 4 mM stock solution of each fragment in 100% DMSO was added to 190 µL of a buffer composed of 1.06 × PBS + 1.06% OG so as to obtain a final fragment concentration of 200 µM in PBS + 1% OG + 5% DMSO in a volume of 200 µL. We note that although a higher screening concentration in the mM range would in principle result in higher protein surface occupancy, allowing the detection of weaker interactions, this may also increase the probability of non-specific binding and/or promiscuously binding colloidal aggregates. In addition, the presence of salt and detergent in the buffer helps to stabilize the hAQP1 and also reduces the chances of non-specific binding. The DMSO solvent has a high refractive index and can be a major cause of false positives and plate-to-plate baseline variations. Therefore, it was important to accurately match its concentration in the sample buffer and the running buffer throughout the screening to minimize data inconsistencies during analysis.
The fragments were injected across a reference channel and hAQP1 channel for 2 min at flow rate of 30 µL/min, and then allowed to dissociate in running buffer for another min. Each fragment was injected in duplicates. DMSO calibration was performed for DMSO correction. Reproducibility was monitored with duplicate injections of each sample. No regeneration step was necessary as all fragments were dissociated. Previously validated positive controls, NSC226080 and NSC624169 (not shown), were included over the course of screening to monitor the surface protein activity.
These fragments, together with the positive controls, were diluted into 25, 50, 100 and 200 µM and tested over the same surfaces under the same conditions. DMSO calibration was performed for DMSO correction. Non-stoichiometric binders (potential fragments that aggregate, precipitate, binding non-specifically, etc.) were excluded. Good binders were assayed in a broader concentration range from 6.25 to 800 µM in 2-fold dilutions under the same conditions.
Raw sensorgrams were corrected for DMSO and double referenced (subtraction of the reference flow cell followed by subtraction of the closest buffer blank), which responses were corrected with a reference flow cell and a blank buffer injections. Corrected sensorgrams were y-axis and x-axis corrected at the point of fragment injection. Responses for the varied concentrations for a fragment were overlaid. […]
For orientation: SPR reads the build-up and loss of mass on a sensor chip optically.

For data set [2], the target named is T1, hAQP1. The experiment in a line: Thermal aggregation shift assay (differential static light scattering, DSLS). It counts as binding. Further details: key to ΔTagg (+/−): positive (+) Thermal Shift; ΔTagg (+/−). As to conditions: for ΔTagg (+/−): 1 mM of each fragment; for Tagg: hAQP1 incubated in 1 mM of fragment, hAQP1 alone 54.6 ± 0.1; for dose-dependency of hAQP1 stabilization: increasing concentration of fragment; for Tagg of hAQP1: secondary dose-response assay. How it is done: Temperature-dependent protein aggregation was measured with static light scattering (Stargazer-384, Harbinger Biotech, Markham, ON, Canada) as previously described with modifications. Briefly, purified hAQP1 in PBS pH 7.4 and 1% OG at a concentration of 0.2 mg/mL, incubated with test compound or fragment at the appropriate concentration at room temperature for 15 min, and aliquoted in a clear-bottom 384-well plate (Nunc, Roskilde, Denmark) to a volume of 45 µL in triplicate. The final concentration of DMSO was kept at 5%. Mineral oil (45 µL) covered the sample to prevent evaporation. The sample was heated from 25 to 80 °C at a rate of 1 °C per minute. Incident light was shone on the protein drop from beneath at a 30° angle, and a CCD camera was used to measure the scattered light intensity every 30 s to monitor protein aggregation. Data collated was analyzed using the Bioactive software (Harbinger Biotech). Intensities were plotted as a function of temperature and fitted to the Boltzmann equation by non-linear regression. The point of inflection of the fitted curve defined the temperature of aggregation (Tagg).

The subject of a further data set is human red blood cells. The experiment in a line: Stopped-flow water permeability assay using human red blood cells. As to conditions: tested at 1 mM. It counts as cell-based. On the procedure:
As indicated in the introduction, the binders found should not necessarily show inhibition. Nevertheless, we performed stopped-flow assays to test the effects of the seven fragments in Figure 6 on hAQP1 water permeability using human red blood cells. Based on the values of the rate constants of the scattering increase, none of these fragments produced a significant reduction in water permeability when tested at 1 mM (not shown). Several factors may account for this. […] In addition, hAQP1 in red blood cells is highly glycosylated compared to the hAQP1 purified from insect cells, and this may affect binding affinity. Another factor is the orientation of the protein in the membrane, as in theory only one side of the protein (extracellular) is exposed to the drug in RBC assays, whereas both extramembrane domains are exposed when the protein is solubilized in micelles. Another factor, also noted by Seeliger et al., is the high density of AQP1 at the membrane of red blood cells. […] We are at present unable to explain this behavior or relate it to inhibition of hAQP1.

The target of data set [3] is T1, hAQP1. The experiment in a line: Stopped-flow water permeability assay of hAQP1 proteoliposomes. It counts as biochemical. On the procedure: Liposomes used in this work were prepared using film rehydration. In this procedure, a thin lipid film of Escherichia coli lipids is formed by drying under a nitrogen stream lipid extract powder (Avanti Polar Lipids Inc., Alabaster, AL, USA) in chloroform. After at least 2 h in a vacuum desiccator, purified aquaporin protein in detergent was added and supplemented with reconstitution buffer (20 mM Tris–HCl pH 8.0) to obtain a protein-to-lipid molar ratio of 1:400. A volume of 1 mL of this reconstitution mixture was incubated for 1 h at room temperature. Uniform sized liposomes were obtained by extrusion through a 400 nm pore-size polycarbonate membrane using an Avestin extruder. […]
The water permeability of proteoliposomes reconstituted with purified aquaporin was determined in a SX20 stopped-flow spectrometer (Applied Photophysics, Leatherhead, UK) with a dead time of 1.1 ms. […] The solution osmolarities were measured using a vapor pressure osmometer (Wescor, Logan, UT, USA). […] The measured average diameter of control liposomes and hAQP1-proteoliposomes were 368 and 262 nm, respectively.
Data was acquired by the Pro-Data SX software and analyzed by Pro-Data Viewer software (Applied Photophysics), where the measured light scattering intensity signals were fitted to an exponential function to obtain the rate constants. […]

[4] abbreviates: 1:1 steady-state binding model, 6.25 to 800 µM in 2-fold dilutions, 25 °C, read-out: SPR (KD).
Setting [5] is: inset table of the Figure 5 sensorgram, read-out: KD (inset table).

Structures are written as SMILES. Like-named read-outs stand apart in the source and are kept apart here. Where only a bound is given, the exact number is not on record here.

15 compounds from article PMC4848905, “Fragment Screening of Human Aquaporin 1” (International Journal of Molecular Sciences, 2016) can be followed below.

In the case of `NCc1ccc(-c2ccc(C(F)(F)F)cn2)cc1` [CC53013], the Kd on hAQP1 [1] (setting [4]) and on hAQP1 [1] (setting [5]) was 1310 µM each time. In addition, the SPR binding behaviour result on hAQP1 [1] is reported as “fast-on, fast-off kinetics”. In addition, the “ΔTagg (+/−)” value at hAQP1 [2] is recorded as “−”. Besides, the Tagg at hAQP1 [2] was 48.6 °C.

With `OC1CCCNC1` (stereo not drawn) [AC36708], on hAQP1 [2], the “ΔTagg (+/−)” value is on record as “+” and the Tagg amounted to 62.9 ± 0.4 °C.

For the compound `NCCNCc1ccccc1` [SB01744], at hAQP1 [2], the “ΔTagg (+/−)” value is reported as “+”, the Tagg is 58.7 ± 0.2 °C and the “dose-dependency of hAQP1 stabilization” value is on record as “could not be interpreted due to inconsistencies in the results”.

As for `OCc1cccc(-c2ccco2)c1` [CC46109], the Kd at hAQP1 [1] (setting [4]) and on hAQP1 [1] (setting [5]) was 982 µM in each case. For the same compound, the “ΔTagg (+/−)” value on hAQP1 [2] was “+”. Moreover, the “amplitude of the stopped-flow traces” value with human red blood cells is given as “large amplitude reduction in the traces”.

Regarding `[Cl][Hg][Cl]` [HgCl2, mercuric chloride], the “average fitted rate constant (k)” value on hAQP1 [3] (300 µM, 23 °C, means ± S.E., n = 6, without inhibitor 109.4 (±1.9)) was 8.56 (±0.03) s^−1. The “osmotic water permeability coefficient (Pf)” value on hAQP1 [3] (proteoliposomes pre-incubated with 300 µM, without inhibitor Pf = 0.053) is given as 0.0041 cm/s.

Regarding `c1ccc2c(c1)CCNCC2` [MO08607], the Kd on hAQP1 [1] (setting [4]) and on hAQP1 [1] (setting [5]) was 962 µM each time. In addition, the “ΔTagg (+/−)” value at hAQP1 [2] is given as “+”. In addition, the Tagg on hAQP1 [2] stood at 59.0 ± 0.3 °C. Moreover, the “dose-dependency of hAQP1 stabilization” value on hAQP1 [2] is on record as “can be considered a true binder”. The “Tagg of hAQP1” value at hAQP1 [2] (50 μM) came out at 61.8 ± 0.6 °C; at hAQP1 [2] (400 µM) it was 66.3 ± 0.1 °C; on hAQP1 [2] (2000 µM) it was 86.7 ± 7.2 °C.

For the compound `Cc1cc2cc(N)ccc2[nH]1` [AC34875], the Kd at hAQP1 [1] (setting [4]) and at hAQP1 [1] (setting [5]) was 225 µM throughout. Besides, at hAQP1 [1], the SPR binding behaviour result is given as “binding did not achieve saturation equilibrium at higher concentrations”. Also, the “ΔTagg (+/−)” value on hAQP1 [2] was “−”. Also, at hAQP1 [2], the Tagg amounted to 50.9 °C.

Take `Nc1ccc2c(c1)OCCO2` [SB00353]: the Kd on hAQP1 [1] (setting [4]) and at hAQP1 [1] (setting [5]) was 902 µM each time. Moreover, the “ΔTagg (+/−)” value at hAQP1 [2] is reported as “−”. The Tagg at hAQP1 [2] was 51.1 °C.

As to `Nc1cccc(CN2CCCC2)c1` [CC55714], at hAQP1 [2], the “ΔTagg (+/−)” value is reported as “+” and the Tagg is 63.6 ± 0.4 °C.

On to `O=Nc1c(O)ccc2ccccc12` [AC15153], for which the Kd on hAQP1 [1] (setting [4]) and at hAQP1 [1] (setting [5]) was 337 µM in each case.

Take `NCc1cccc(N2CCCCC2)n1` [CC38113]: the Kd (as a rule, the concentration at which binding is half-saturated) on hAQP1 [1] (setting [4]) was determined as 62 µM; at hAQP1 [1] (setting [5]) it was 62.2 µM. Also, at hAQP1 [2], the “ΔTagg (+/−)” value is recorded as “+”. Besides, the Tagg at hAQP1 [2] turned out to be 63.3 ± 0.1 °C. Moreover, in the data set with human red blood cells, the “amplitude of the stopped-flow traces” value was “large amplitude reduction in the traces”.

Turning to `CNCc1scc2c1OCCO2` [CC47846], at hAQP1 [2], the “ΔTagg (+/−)” value is reported as “+” and the Tagg amounted to 70.0 ± 1.2 °C.

In turn, `NCCc1coc2ccccc12` [CC40813] registered a Kd on hAQP1 [1] (KD (inset table), inset table of the Figure 5 sensorgram) of 133 µM. Besides, the affinity at hAQP1 [1] (SPR (KD), 1:1 steady-state binding model, 6.25 to 800 µM in 2-fold dilutions, 25 °C), expressed as Kd, was 133 µM. The SPR binding behaviour result on hAQP1 [1] is “binding did not achieve saturation equilibrium at higher concentrations”. Also, at hAQP1 [2], the “ΔTagg (+/−)” value was “−” and the Tagg is 50.3 °C.

`Nc1snnc1-c1ccc(C(F)(F)F)cc1` [MO00656]: on hAQP1 [1] (setting [4]), the Kd was over 800 µM. The SPR binding behaviour result at hAQP1 [1] is given as “fast-on, fast-off kinetics”. Further, on hAQP1 [2], the “ΔTagg (+/−)” value is listed as “−” and the Tagg was determined as 51.8 °C.

Regarding `NCCNc1cccc2ccccc12` [AC42399], at hAQP1 [1] (setting [4]), the Kd stood at 546 µM. The SPR binding behaviour result on hAQP1 [1] is recorded as “fast-on, fast-off kinetics”. In addition, at hAQP1 [2], the “ΔTagg (+/−)” value is “−” and the Tagg came to 48.0 °C.
